The assay has as its system Mycobacterium tuberculosis. Nature of the assay: Bacteriostatic activity against Mycobacterium bovis BCG after 7 days by Alamar Blue assay. It is filed as functional. Particulars: variant bovis BCG, 168 h.

Here are results for four compounds from ChEMBL document CHEMBL3399990, “Synthesis of mycothiol conjugate analogues and evaluation of their antimycobacterial activity” (Bioorg Med Chem Lett, 2015).

Values after ≈ are worked out from the molar mass of the structure shown. Some results are limits rather than exact numbers.

Regarding `N[C@@H](CSC(Cl)=C(Cl)Cl)C(=O)N[C@@H]1[C@@H](O)[C@H](O)[C@@H](CO)O[C@@H]1SC1CCCCC1`, the MIC was 62.5 µM (≈ 31.9 µg/mL).

In turn, `N[C@@H](CSC(Cl)=C(Cl)Cl)C(=O)N[C@@H]1[C@@H](O)[C@H](O)[C@@H](CO)O[C@H]1SC1CCCCC1` displayed an MIC of 125 µM (≈ 63.7 µg/mL).

As to `CC(C)(C)OC(=O)N[C@@H](CSC(Cl)=C(Cl)Cl)C(=O)N[C@@H]1[C@@H](O)[C@H](O)[C@@H](CO)O[C@@H]1SC1CCCCC1`, the MIC amounted to 500 µM (≈ 305 µg/mL).

For the compound `CC(C)(C)OC(=O)N[C@@H](CSC(Cl)=C(Cl)Cl)C(=O)N[C@@H]1[C@@H](O)[C@H](O)[C@@H](CO)O[C@H]1SC1CCCCC1`, the MIC is at least 1000 µM.
